pIC50: −log10 of the molar value. Where two headings read alike, the source gives them in different places.
Experiments:
[1] = Measurement of thermodynamic solubility; assay type: physicochemical; conditions: for solubility at 24 h: thermodynamic from solid, read-out: solubility in water
Procedure: Thermodynamic solubility for the compounds of the invention listed in Table C is measured by a published literature procedure, e.g., Liping Zhou, et al., J. Pharm. Sci (2007) 96(11): 3052-3071.
The DMSO stocks of test compounds previously dissolved in 25 μL of DMSO (˜10 mM) in mini-prep vial (MPV: Whatman, with PVDF filter and 0.45 μm pore size) chamber were evaporated via a GeneVac HT-4X evaporator for approximately 1 hour, at the guard temperature of 30° C. An aliquot of 250 μL buffer solution (pH 1.0 or 6.8) was added into each MPV chamber containing powders reconstituted from DMSO stock solutions. The MPV filter plungers were pushed down into the chamber until the membrane of the filter plunger slightly touched the surface of the buffer to promote equilibrium between the two compartments and to minimize the adsorption due to non-specific binding of samples during the subsequent 24-hr incubation (at 600 RPM at room temperature). Immediately after the 24-hr incubation, the plungers were further pushed down to the bottom of the chambers. More solution was pushed through the membrane and entered the plunger compartment. The filter/chamber assemblies were then put on a shaker for another 30 minutes at 600 RPM. Afterwards, filtrates were further diluted (1:10) with 50/50 acetonitrile/water solvent followed by a thorough mixing process. Both plates with diluted and undiluted filtrates were analyzed by HPLC and quantified against the four-point standard dilution curve of the same test compound (5 μM, 35 μM, 65 μM and 100 μM, respectively). In the current study, solubility reflects the average of triplicate samples tested at each pH.

[2] = biological target: T1, HCV NS3-4A serine protease (full-length NS3-4A protein, genotype 1a, strain HCV-1) (Hepatitis C virus genotype 1a, UniProt P26664); assay: HCV NS3-4A protease assay; assay type: biochemical
T1 construct: using the full-length NS3-4A protein (genotype 1a, strain HCV-1)
T1 sequence (P26664 1658-1711): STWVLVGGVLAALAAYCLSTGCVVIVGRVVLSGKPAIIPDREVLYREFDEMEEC
T1 sequence (P26664 1027-1657): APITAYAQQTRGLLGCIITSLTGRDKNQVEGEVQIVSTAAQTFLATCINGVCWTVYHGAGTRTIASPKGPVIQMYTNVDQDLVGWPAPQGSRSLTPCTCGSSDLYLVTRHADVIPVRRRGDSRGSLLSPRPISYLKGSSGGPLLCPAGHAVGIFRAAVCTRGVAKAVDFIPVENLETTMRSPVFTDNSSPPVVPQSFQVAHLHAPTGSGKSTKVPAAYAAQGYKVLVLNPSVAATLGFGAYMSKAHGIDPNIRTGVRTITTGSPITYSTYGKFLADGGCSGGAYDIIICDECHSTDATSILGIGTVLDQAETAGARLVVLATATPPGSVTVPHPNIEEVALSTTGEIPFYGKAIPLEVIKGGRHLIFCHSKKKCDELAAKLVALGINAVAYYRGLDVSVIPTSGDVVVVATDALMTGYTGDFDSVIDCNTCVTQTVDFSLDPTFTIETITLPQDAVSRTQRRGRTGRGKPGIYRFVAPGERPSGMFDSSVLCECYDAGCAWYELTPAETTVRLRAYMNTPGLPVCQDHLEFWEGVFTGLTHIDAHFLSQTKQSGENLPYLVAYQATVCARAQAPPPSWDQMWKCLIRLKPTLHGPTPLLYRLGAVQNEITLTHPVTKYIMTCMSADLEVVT
Procedure: The inhibitory activity of certain compounds of Table A against HCV NS3-4A serine protease is determined in a homogenous assay using the full-length NS3-4A protein (genotype 1a, strain HCV-1) and a commercially available internally-quenched fluorogenic peptide substrate as described by Taliani, M., et al. 1996 Anal. Biochem. 240:60-67, which is incorporated by reference in its entirety.

[3] = pH 1, simulated gastric fluid, pH of about 1
[4] = pH 6.8, aqueous buffer, pH of about 6.8

Molecule: C=C[C@@H]1C[C@]1(NC(=O)[C@@H]1C[C@@]2(CN1C(=O)[C@@H](NC(=O)[C@@H](NC(=O)[C@@H]1CCCCN1CC)C1CCCCC1)C(C)(C)C)C(C)(C)C21CCC1)C(=O)NS(=O)(=O)C1(CCC)CC1 [Compound 67, (5R,8S)-7-[(2S)-2-{[(2S)-2-cyclohexyl-2-({[(2S)-1-ethylpiperidin-2-yl]carbonyl}amino)acetyl]amino}-3,3-dimethylbutanoyl]-10,10-dimethyl-N-[(1R,2S)-1-{[(1-propylcyclopropyl)sulfonyl]carbamoyl}-2-vinylcyclopropyl]-7-azadispiro[3.0.4.1]decane-8-carboxamide]
- solubility at 24 h [1, 3]: ≥ 100 µM
- solubility at 24 h [1, 4]: ≥ 30 µM
- pIC50 ([2]; Protease IC50): 8.82

Molecule: C=C[C@@H]1C[C@]1(NC(=O)[C@@H]1C[C@@]2(CN1C(=O)[C@@H](NC(=O)[C@@H](NC(=O)[C@@H]1CCCN1CC)C1CCCCC1)C(C)(C)C)C(C)(C)C21CCC1)C(=O)NS(=O)(=O)C1(CCC)CC1 [Compound 69, (5R,8S)-7-[(2S)-2-{[(2S)-2-cyclohexyl-2-({[(2S)-1-ethylpyrrolidin-2-yl]carbonyl}amino)acetyl]amino}-3,3-dimethylbutanoyl]-10,10-dimethyl-N-[(1R,2S)-1-{[(1-propylcyclopropyl)sulfonyl]carbamoyl}-2-vinylcyclopropyl]-7-azadispiro[3.0.4.1]decane-8-carboxamide]
- solubility at 24 h [1, 3]: ≥ 100 µM
- solubility at 24 h [1, 4]: ≥ 30 µM
- pIC50 ([2]; Protease IC50): 8.82

Molecule: C=C[C@@H]1C[C@]1(NC(=O)[C@@H]1C[C@@]2(CN1C(=O)[C@@H](NC(=O)[C@@H](NC(=O)c1cc(C(C)(C)C)n[nH]1)C(C)(C)C)C(C)(C)C)C(C)(C)C21CCC1)C(=O)NS(=O)(=O)C1CC1 [Compound 138, (5R,8S)-7-[(2S)-2-{[(2S)-2-{[(3-tert-butyl-1H-pyrazol-5-yl)carbonyl]amino}-3,3-dimethylbutanoyl]amino}-3,3-dimethylbutanoyl]-N-{(1R,2S)-1-[(cyclopropylsulfonyl)carba-moyl]-2-vinylcyclopropyl}-10,10-dimethyl-7-azadispiro[3.0.4.1]decane-8-carboxamide]
- pIC50 ([2]; Protease IC50): 8.26

Molecule: C=C[C@@H]1C[C@]1(NC(=O)[C@@H]1C[C@@]2(CN1C(=O)[C@@H](NC(=O)[C@@H](NC(=O)C1CN(C(C)C)C1)C(C)(C)C)C(C)(C)C)C(C)(C)C21CCC1)C(=O)NS(=O)(=O)C1CC1 [Compound 139, (5R,8S)-N-{(1R,2S)-1-[(cyclopropylsulfonyl)carba-moyl]-2-vinylcyclopropyl}-7-[(2S)-2-{[(2S)-2-{[(1-isopropylazetidin-3-yl)carbonyl]amino}-3,3-dimethylbutanoyl]amino}-3,3-dimethylbutanoyl]-10,10-dimethyl-7-azadispiro[3.0.4.1]decane-8-carboxamide]
- pIC50 ([2]; Protease IC50): 7.82

Molecule: C=C[C@@H]1C[C@]1(NC(=O)[C@@H]1C[C@@]2(CN1C(=O)[C@@H](NC(=O)[C@@H](NC(=O)[C@H]1CCCN1C(C)C)C(C)(C)C)C(C)(C)C)C(C)(C)C21CCC1)C(=O)NS(=O)(=O)C1CC1 [Compound 140, (5R,8S)-N-{(1R,2S)-1-[(cyclopropylsulfonyl)carba-moyl]-2-vinylcyclopropyl}-7-[(2S)-2-{[(2S)-2-({[(2R)-1-isopropylpyrrolidin-2-yl]carbonyl}amino)-3,3-dimethylbutanoyl]amino}-3,3-dimethylbutanoyl]-10,10-dimethyl-7-azadispiro[3.0.4.1]decane-8-carboxamide]
- pIC50 ([2]; Protease IC50): 8.82

Molecule: C=C[C@@H]1C[C@]1(NC(=O)[C@@H]1C[C@@]2(CN1C(=O)[C@@H](NC(=O)[C@@H](NC(=O)[C@@H]1CCCN1C(C)C)C(C)(C)C)C(C)(C)C)C(C)(C)C21CCC1)C(=O)NS(=O)(=O)C1CC1 [Compound 141, (5R,8S)-N-{(1R,2S)-1-[(cyclopropylsulfonyl)carba-moyl]-2-vinylcyclopropyl}-7-[(2S)-2-{[(2S)-2-({[(2S)-1-isopropylpyrrolidin-2-yl]carbonyl}amino)-3,3-dimethylbutanoyl]amino}-3,3-dimethylbutanoyl]-10,10-dimethyl-7-azadispiro[3.0.4.1]decane-8-carboxamide]
- pIC50 ([2]; Protease IC50): 8.70

Molecule: C=C[C@@H]1C[C@]1(NC(=O)[C@@H]1C[C@@]2(CN1C(=O)[C@@H](NC(=O)[C@@H](NC(=O)[C@H]1CCCCN1C(C)C)C(C)(C)C)C(C)(C)C)C(C)(C)C21CCC1)C(=O)NS(=O)(=O)C1CC1 [Compound 142, (5R,8S)-N-{(1R,2S)-1-[(cyclopropylsulfonyl)carba-moyl]-2-vinylcyclopropyl}-7-[(2S)-2-{[(2S)-2-({[(2R)-1-isopropylpiperidin-2-yl]carbonyl}amino)-3,3-dimethylbutanoyl]amino}-3,3-dimethylbutanoyl]-10,10-dimethyl-7-azadispiro[3.0.4.1]decane-8-carboxamide]
- pIC50 ([2]; Protease IC50): 8.52

Molecule: C=C[C@@H]1C[C@]1(NC(=O)[C@@H]1C[C@@]2(CN1C(=O)[C@@H](NC(=O)[C@@H](NC(=O)[C@@H]1COCCN1C(C)C)C(C)(C)C)C(C)(C)C)C(C)(C)C21CCC1)C(=O)NS(=O)(=O)C1CC1 [Compound 143, (5R,8S)-N-{(1R,2S)-1-[(cyclopropylsulfonyl)carba-moyl]-2-vinylcyclopropyl}-7-[(2S)-2-{[(2S)-2-({[(3S)-4-isopropylmorpholin-3-yl]carbonyl}amino)-3,3-dimethylbutanoyl]amino}-3,3-dimethylbutanoyl]-10,10-dimethyl-7-azadispiro[3.0.4.1]decane-8-carboxamide]
- pIC50 ([2]; Protease IC50): 8.40

Molecule: C=CCC1(S(=O)(=O)NC(=O)[C@@]2(NC(=O)[C@@H]3C[C@@]4(CN3C(=O)[C@@H](NC(=O)[C@@H](NC(=O)[C@@H]3CCCCN3C(C)C)C3CCCCC3)C(C)(C)C)C(C)(C)C43CCC3)C[C@H]2C=C)CC1 [Compound 144, (5R,8S)-N-[(1R,2S)-1-{[(1-allylcyclopropyl)sulfonyl]carba-moyl}-2-vinylcyclopropyl]-7-[(2S)-2-{[(2S)-2-cyclohexyl-2-({[(2S)-1-isopropylpiperidin-2-yl]carbonyl}amino)acetyl]amino}-3,3-dimethylbutanoyl]-10,10-dimethyl-7-azadispiro[3.0.4.1]decane-8-carboxamide]
- pIC50 ([2]; Protease IC50): 9.00

Molecule: (5R,8S)-7-[(2S)-2- ({cyclohexyl[(1H-pyrazol-4- ylcarbonyl)amino]acetyl} amino)-3,3-dimethylbutanoyl]-N- {(1R,2S)-1- [(cyclopropylsulfonyl)carba- moyl]-2-vinylcyclopropyl}- 10,10-dimethyl-7- azadispiro[3.0.4.1]decane-8- carboxamide [Compound 106]
- pIC50 ([2]; read-out: Protease IC50): 9.00

Molecule: (5R,8S)-7-[(2S)-2-{[(2S)-2- cyclohexyl-2-({[(2S)-1- isopropylpiperidin-2- yl]carbonyl}amino)acetyl] amino}-3,3-dimethylbutanoyl]-N- {(1R,2S)-1- [(cyclopropylsulfonyl)carba- moyl]-2-vinylcyclopropyl}- 10,10-dimethyl-7- azadispiro[3.0.4.1]decane-8- carboxamide [Compound 21]
- pIC50 ([2]; read-out: Protease IC50): 9.30

Molecule: (5R,8S)-7-[(2S)-2-{[(2S)-2-cyclohexyl-2-({[(2S)-1-isopropylpiperidin-2-yl]carbonyl}amino)acetyl]amino}-3,3-dimethylbutanoyl]-N-{(1R,2S)-1-[(cyclopentylsulfonyl)carbamoyl]-2-vinylcyclopropyl}-10,10-dimethyl-7-azadispiro[3.0.4.1]decane-8-carboxamide [Compound 80]
- solubility in water ([1]; pH 1): at least 100 micromolar
- solubility in water ([1]; pH 6.8): at least 30 micromolar

Molecule: (5R,8S)-7-[(2S)-2-{[{[(5- chloro-1H-indol-2- yl)carbonyl]amino}(cyclohex- yl)acetyl]amino}-3,3- dimethylbutanoyl]-N- {(1R,2S)-1- [(cyclopropylsulfonyl)carba- moyl]-2-vinylcyclopropyl}- 10,10-dimethyl-7- azadispiro[3.0.4.1]decane-8- carboxamide [Compound 129]
- pIC50 ([2]; read-out: Protease IC50): 7.82

Molecule: (5R,8S)-7-{(2S)-2- [(cyclohexyl{[(1- methylcyclohexyl)carbonyl] amino}acetyl)amino]-3,3- dimethylbutanoyl}-N- {(1R,2S)-1- [(cyclopropylsulfonyl)carba- moyl]-2-vinylcyclopropyl}- 10,10-dimethyl-7- azadispiro[3.0.4.1]decane-8- carboxamide [Compound 128]
- pIC50 ([2]; read-out: Protease IC50): 8.30

Molecule: (5R,8S)-N-{(1R,2S)-1- [(cyclopropylsulfonyl)carba- moyl]-2-vinylcyclopropyl}-7- [(2S)-2-({(2S)-3,3-dimethyl- 2-[(piperidin-1- ylcarbonyl)amino]butanoyl} amino)-3,3-dimethylbutanoyl]- 10,10-dimethyl-7- azadispiro[3.0.4.1]decane-8- carboxamide [Compound 57]
- pIC50 ([2]; read-out: Protease IC50): 7.60

Source: patent publication US20110182850A1, “ORGANIC COMPOUNDS AND THEIR USES” (priority 2009, published 2011)
